Source: ChEMBL document CHEMBL1201862, “PubChem BioAssay data set” (2004)
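These data come from cells grown in 96-well plates and exposed to compound for 48 hours at five concentrations. GI50: concentration for 50% inhibition of growth.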 Active and inactive are the calls of the source. Rule as the data show it: active = GI50 up to about 1.1 µM and inactive = higher.

Tests used:
Experiment in all cases: NCI tumour cell line growth inhibition, 48 h
[1] = test system: A498
[2] = test system: CAKI-1
[3] = test system: DU-145
[4] = test system: HOP-92
[5] = test system: HT-29
[6] = test system: IGROV-1
[7] = test system: KM12
[8] = test system: Malme-3M
[9] = test system: NCI-H23
[10] = test system: NCI-H460
[11] = test system: OVCAR-5
[12] = test system: RPMI-8226
[13] = test system: RXF 393
[14] = test system: SF-268
[15] = test system: SF-295
[16] = test system: SK-MEL-2
[17] = test system: SK-MEL-5
[18] = test system: SW-620
[19] = test system: TK-10
[20] = test system: U-251

Row | SMILES | GI50 [1] | GI50 [2] | GI50 [3] | GI50 [4] | GI50 [5] | GI50 [6] | GI50 [7] | GI50 [8] | GI50 [9] | GI50 [10] | GI50 [11] | GI50 [12] | GI50 [13] | GI50 [14] | GI50 [15] | GI50 [16] | GI50 [17] | GI50 [18] | GI50 [19] | GI50 [20]
1 | COC(=O)c1cc(NC(=O)c2cc(NC(=O)c3cc([N+](=O)[O-])cn3C)cn2C)cn1C | > 100 µM (inactive) | 69.2 µM (inactive) | > 100 µM (inactive) | 14.3 µM (inactive) | > 100 µM (inactive) | 0.0147 µM (active) | 64.1 µM (inactive) | 26.9 µM (inactive) | 30.8 µM (inactive) | 40.3 µM (inactive) | 81.1 µM (inactive) | 29.4 µM (inactive) | > 100 µM (inactive) | > 100 µM (inactive) | 89.5 µM (inactive) | 80.2 µM (inactive) | 10.2 µM (inactive) | > 100 µM (inactive) | 20.3 µM (inactive) | 36.8 µM (inactive)
2 | Oc1ccc(Br)cc1/C=N/c1cccc(C(F)(F)F)c1 | > 100 µM (inactive) | 66.7 µM (inactive) | 36.8 µM (inactive) | 35.2 µM (inactive) | 37.8 µM (inactive) | 6.24 µM (inactive) | 36.6 µM (inactive) | 23.5 µM (inactive) | 37.2 µM (inactive) | > 100 µM (inactive) | > 100 µM (inactive) | 28.1 µM (inactive) | > 100 µM (inactive) | 8.69 µM (inactive) | 38.6 µM (inactive) | 19.5 µM (inactive) | 28.3 µM (inactive) | 24 µM (inactive) | > 100 µM (inactive) | 6.89 µM (inactive)
3 | CC(C)OC1OC(CO)C(O)CC1n1cc(F)c(=O)[nH]c1=O (configuration not stated) | > 100 µM (inactive) | 24.6 µM (inactive) | > 100 µM (inactive) | > 100 µM (inactive) | > 100 µM (inactive) | > 100 µM (inactive) | > 100 µM (inactive) | 86.1 µM (inactive) | > 100 µM (inactive) | > 100 µM (inactive) | > 100 µM (inactive) | 39.4 µM (inactive) | 47.5 µM (inactive) | 59.3 µM (inactive) | > 100 µM (inactive) | > 100 µM (inactive) | > 100 µM (inactive) | 30.9 µM (inactive) | > 100 µM (inactive) | 66.8 µM (inactive)
4 | C=C1C(=O)O[C@H]2[C@H]3O[C@@H](C[C@@H]12)[C@@]1(C)CC[C@H](O1)C(C)=CCC[C@H]3C | 1.63 µM (inactive) | 1.28 µM (inactive) | 1.49 µM (inactive) | 1.55 µM (inactive) | 1.34 µM (inactive) | 1.53 µM (inactive) | 1.8 µM (inactive) | 1.75 µM (inactive) | 1.53 µM (inactive) | 2.07 µM (inactive) | 3.09 µM (inactive) | 0.513 µM (active) | 1.48 µM (inactive) | 1.45 µM (inactive) | 5.16 µM (inactive) | 1.93 µM (inactive) | 1.49 µM (inactive) | 1.26 µM (inactive) | 1.58 µM (inactive) | 1.61 µM (inactive)
5 | COC(=O)/C(C#N)=C/c1cc(C(C)(C)C)c(O)c(C(C)(C)C)c1 | 1.77 µM (inactive) | 2.89 µM (inactive) | 4.58 µM (inactive) | 0.662 µM (active) | 2.82 µM (inactive) | 4.55 µM (inactive) | 2.62 µM (inactive) | 5.55 µM (inactive) | 1.42 µM (inactive) | 1.95 µM (inactive) | 2.54 µM (inactive) | 0.401 µM (active) | 3.41 µM (inactive) | 3.27 µM (inactive) | 1.74 µM (inactive) | 1.73 µM (inactive) | 1.18 µM (inactive) | 3.03 µM (inactive) | 3.24 µM (inactive) | 2.26 µM (inactive)
6 | CN1C(=O)C(O)CC1c1cccc(F)c1 (configuration not stated) | > 100 µM (inactive) | > 100 µM (inactive) | > 100 µM (inactive) | > 100 µM (inactive) | > 100 µM (inactive) | > 100 µM (inactive) | > 100 µM (inactive) | > 100 µM (inactive) | > 100 µM (inactive) | > 100 µM (inactive) | > 100 µM (inactive) | > 100 µM (inactive) | > 100 µM (inactive) |  | > 100 µM (inactive) | > 100 µM (inactive) | > 100 µM (inactive) | > 100 µM (inactive) |  | > 100 µM (inactive)
7 | Cc1cc(O)nc(NN2C(Cl)C(=O)C2c2ccccc2O)n1 (configuration not stated) | 12.2 µM (inactive) | 1.64 µM (inactive) | 4.06 µM (inactive) | 5.26 µM (inactive) | 8.39 µM (inactive) | 3.75 µM (inactive) | 4.32 µM (inactive) |  | 5.45 µM (inactive) | 0.726 µM (active) | 12.9 µM (inactive) | 3.06 µM (inactive) | 3.03 µM (inactive) | 1.53 µM (inactive) | 2.76 µM (inactive) | 1.61 µM (inactive) | 2.66 µM (inactive) | 3.27 µM (inactive) | 19.4 µM (inactive) | 2.76 µM (inactive)
8 | CC(=O)Oc1c(N2CCCCC2)c(C(=O)c2ccccc2)c(O)c2ccn(N(C)C)c12 | 15.3 µM (inactive) | 15.4 µM (inactive) | 21.8 µM (inactive) | 23.9 µM (inactive) | 14.6 µM (inactive) |  | 10.9 µM (inactive) | 17.3 µM (inactive) | 18.9 µM (inactive) | 21.2 µM (inactive) | 25.5 µM (inactive) | 7.01 µM (inactive) | 20.7 µM (inactive) | 21.9 µM (inactive) | 15 µM (inactive) | 25.2 µM (inactive) | 15.9 µM (inactive) | 17.3 µM (inactive) | 16.7 µM (inactive) | 16.7 µM (inactive)
9 | CC(C)(C(=O)NN)c1ccccc1 | > 100 µM (inactive) | > 100 µM (inactive) | > 100 µM (inactive) | > 100 µM (inactive) | > 100 µM (inactive) | 8.79 µM (inactive) | 42.3 µM (inactive) | > 100 µM (inactive) | > 100 µM (inactive) | 37.2 µM (inactive) | > 100 µM (inactive) | 84.1 µM (inactive) |  | 45.3 µM (inactive) | 33.7 µM (inactive) | 21.6 µM (inactive) | > 100 µM (inactive) | 33 µM (inactive) | > 100 µM (inactive) | > 100 µM (inactive)
10 | O=C1CC(=O)c2c(Cl)sc(Cl)c21 | > 100 µM (inactive) | > 100 µM (inactive) | > 100 µM (inactive) | > 100 µM (inactive) | > 100 µM (inactive) | > 100 µM (inactive) | > 100 µM (inactive) | 21.6 µM (inactive) | 51.6 µM (inactive) | > 100 µM (inactive) | > 100 µM (inactive) |  | 16.1 µM (inactive) | 64.7 µM (inactive) | > 100 µM (inactive) | > 100 µM (inactive) | > 100 µM (inactive) | 91 µM (inactive) | > 100 µM (inactive) | > 100 µM (inactive)
11 | CC(=O)NCc1nc(C#N)c(N)o1 | > 100 µM (inactive) | > 100 µM (inactive) | > 100 µM (inactive) | > 100 µM (inactive) | > 100 µM (inactive) | 8.95 µM (inactive) | > 100 µM (inactive) | > 100 µM (inactive) | > 100 µM (inactive) | > 100 µM (inactive) | > 100 µM (inactive) | > 100 µM (inactive) | > 100 µM (inactive) | > 100 µM (inactive) | > 100 µM (inactive) | > 100 µM (inactive) |  | > 100 µM (inactive) | > 100 µM (inactive) | > 100 µM (inactive)
12 | COCc1nc2c(OC)c(-c3nc4ccc(N5CCN(C)CC5)nc4[nH]3)cc(OC)c2[nH]1 | > 100 µM (inactive) | > 100 µM (inactive) | 29.2 µM (inactive) | > 100 µM (inactive) | 31 µM (inactive) | > 100 µM (inactive) | 27.4 µM (inactive) | 20.7 µM (inactive) | 62.5 µM (inactive) | 35.3 µM (inactive) | 40.4 µM (inactive) |  | 27.2 µM (inactive) | 77.4 µM (inactive) | 31.6 µM (inactive) |  | 18.6 µM (inactive) | 39.1 µM (inactive) | 67.3 µM (inactive) | 39.7 µM (inactive)
13 | Cc1ncn(-c2ccccc2O)c1C | > 100 µM (inactive) | > 100 µM (inactive) | > 100 µM (inactive) | > 100 µM (inactive) | > 100 µM (inactive) | > 100 µM (inactive) | > 100 µM (inactive) | > 100 µM (inactive) | > 100 µM (inactive) |  | > 100 µM (inactive) | > 100 µM (inactive) | > 100 µM (inactive) | > 100 µM (inactive) | 55.5 µM (inactive) | > 100 µM (inactive) | 74.8 µM (inactive) | > 100 µM (inactive) | > 100 µM (inactive) | > 100 µM (inactive)
14 | COc1ccc2c(c1)OCC1Cc3cc4c(cc3OC21)OCO4 (configuration not stated) | > 100 µM (inactive) | 47 µM (inactive) | 56.4 µM (inactive) | > 100 µM (inactive) | 35.1 µM (inactive) | 43 µM (inactive) | 31.8 µM (inactive) | 54.1 µM (inactive) | > 100 µM (inactive) |  | 60.7 µM (inactive) | 71.4 µM (inactive) |  | 55.7 µM (inactive) | 48.5 µM (inactive) | 30 µM (inactive) | 16.8 µM (inactive) | 35.7 µM (inactive) | 28.1 µM (inactive) | 42.6 µM (inactive)
15 | CCCC1C(=O)Nc2cccc3ncn(c23)C1=O (configuration not stated) | > 100 µM (inactive) | > 100 µM (inactive) | > 100 µM (inactive) | > 100 µM (inactive) | > 100 µM (inactive) | > 100 µM (inactive) | > 100 µM (inactive) | > 100 µM (inactive) | > 100 µM (inactive) | > 100 µM (inactive) | > 100 µM (inactive) | > 100 µM (inactive) | > 100 µM (inactive) | > 100 µM (inactive) | > 100 µM (inactive) | > 100 µM (inactive) | > 100 µM (inactive) | > 100 µM (inactive) |  | > 100 µM (inactive)
